In patent US11702404B2, “GLP-1R modulating compounds” (priority 2019, dated 2023):
pEC50: −log10 of the molar value. Like-named read-outs stand apart in the source and are kept apart here.

Experiments:
GLP-1R = GLP-1R (Homo sapiens, UniProt P43220); experiment: GLP-1R activation: cAMP increase in CHO cells stably expressing GLP-1R; assay type: cell-based; settings: for pEC50: read-out: EC50
[1] = Microsomal stability, human liver microsomes (predicted hepatic clearance); settings: predicted from in vitro microsomal stability data
[2] = cAMP increase, CHO cells stably expressing GLP-1R, 10 point dose response, 30 minutes incubation

GLP-1R, sequence (P43220 24-463): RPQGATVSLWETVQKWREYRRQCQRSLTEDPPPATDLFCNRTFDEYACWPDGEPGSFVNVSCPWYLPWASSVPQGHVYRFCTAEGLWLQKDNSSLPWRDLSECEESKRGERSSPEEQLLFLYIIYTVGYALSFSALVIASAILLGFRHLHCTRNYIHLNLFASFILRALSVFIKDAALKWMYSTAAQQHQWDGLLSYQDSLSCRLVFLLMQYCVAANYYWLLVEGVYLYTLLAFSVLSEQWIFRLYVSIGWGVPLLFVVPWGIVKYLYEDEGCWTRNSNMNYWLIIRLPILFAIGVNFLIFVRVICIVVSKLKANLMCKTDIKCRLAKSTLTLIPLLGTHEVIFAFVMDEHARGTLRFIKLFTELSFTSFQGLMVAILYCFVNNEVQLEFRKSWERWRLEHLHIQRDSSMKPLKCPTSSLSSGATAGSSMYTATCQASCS

Compound | pEC50 (GLP-1R; [2]) | Predicted Hepatic Clearance (Pred. Cl.) [1] [L/h/kg] | pEC50 (GLP-1R) | EC50 (GLP-1R; EC50 (nM)) [nM]
COCCn1c(C2OCCc3cc(-c4cccc(OCc5ccc(C#N)cc5F)n4)ccc32)nc2ccc(C(=O)O)cc21 (single isomer, unassigned) [Example 48, 2-(6-(6-((4-cyano-2-fluorobenzyl)oxy)pyridin-2-yl)isochroman-1-yl)-1-(2-methoxyethyl)-1H-benzo[d]imidazole-6-carboxylic acid] | 6.24 | 0.22 |  | 
COC[C@H](c1ccccc1)n1c(Cc2cc(F)c(-c3cccc(OCc4ccc(C#N)cc4F)n3)cc2F)nc2ccc(C(=O)O)cc21 [Example 717] | 7.38 | 0.45 |  | 
CC1(Cn2c(Cc3ccc(-c4cccc(OCc5ccc(C#N)cc5F)n4)cc3C#N)nc3ccc(C(=O)O)cc32)CC1 [Example 117, 2-(2-cyano-4-(6-((4-cyano-2-fluorobenzyl)oxy)pyridin-2-yl)benzyl)-1-((1-methylcyclopropyl)methyl)-1H-benzo[d]imidazole-6-carboxylic acid] | 7.21 | <0.11 |  | 
COCCn1c(Cc2ccc(-c3cccc(OCc4ccc(C#N)cc4F)n3)cc2F)nc2c(OC)cc(C(=O)O)cc21 [Example 345, 2-(4-(6-((4-cyano-2-fluorobenzyl)oxy)pyridin-2-yl)-2-fluorobenzyl)-4-methoxy-1-(2-methoxyethyl)-1H-benzo[d]imidazole-6-carboxylic] | 6.76 | 0.23 |  | 
N#Cc1ccc(COc2nccc(-c3ccc(Cc4nc5ccc(C(=O)O)cc5n4C[C@@H]4CCO4)cc3F)n2)c(F)c1 [Example 403, (S)-2-(4-(2-((4-cyano-2-fluorobenzyl)oxy)pyrimidin-4-yl)-3-fluorobenzyl)-1-(oxetan-2-ylmethyl)-1H-benzo[d]imidazole-6-carboxylic acid] | 9.05 | 0.297 |  | 
N#Cc1ccc(COc2cccc(-c3cc(F)c(Cc4nc5ccc(C(=O)O)cc5n4[C@H]4CCC(F)(F)C4)cc3F)n2)c(F)c1 [Example 698] | 7.20 | 0.38 |  | 
COCCn1c(Cc2cc(F)c(-c3cccc(OCc4ccc(C#N)nc4)n3)cc2F)nc2c(F)cc(C(=O)O)cc21 [Example 657] | 8.23 | 0.24 |  | 
COCCn1c(Cc2ccc(-c3cccc(OCc4ccc(Cl)c(C(C)C)c4)n3)cc2F)nc2ccc(C(=O)O)cc21 [Example 156, 2-(4-(6-((4-chloro-3-isopropylbenzyl)oxy)pyridin-2-yl)-2-fluorobenzyl)-1-(2-methoxyethyl)-1H-benzo[d]imidazole-6-carboxylic acid] | 7.29 | 0.33 |  | 
CCn1cncc1Cn1c(Cc2ccc(-c3cccc(OCc4ccc(C#N)cc4F)n3)cc2F)nc2ccc(C(=O)O)cc21 [Example 525, 2-(4-(6-((4-cyano-2-fluorobenzyl)oxy)pyridin-2-yl)-2-fluorobenzyl)-1-((1-ethyl-1H-imidazol-5-yl)methyl)-1H-benzo[d]imidazole-6-carboxylic acid] | 9.22 | 0.12 |  | 
N#Cc1ccc(COc2cccc(-c3cc(F)c(Cc4nc5ccc(C(=O)O)cc5n4Cc4ncccn4)cc3F)n2)c(F)c1 [Example 269, 2-(4-(6-((4-cyano-2-fluorobenzyl)oxy)pyridin-2-yl)-2,5-difluorobenzyl)-1-(pyrimidin-2-ylmethyl)-1H-benzo[d]imidazole-6-carboxylic acid] | 7.29 | 0.35 |  | 
COc1cc(C#N)ncc1COc1cccc(-c2cc(F)c(Cc3nc4ccc(C(=O)O)cc4n3C[C@@H]3CCO3)cc2F)n1 [Example 850, (S)-2-(4-(6-((6-Cyano-4-methoxypyridin-3-yl)methoxy)pyridin-2-yl)-2,5-difluorobenzyl)-1-(oxetan-2-ylmethyl)-1H-benzo[d]imidazole-6-carboxylic acid] | 9.64 | 0.20 |  | 
N#Cc1ccc(COc2nccc(-c3ccc(Cc4nc5ccc(C(=O)O)cc5n4Cc4ncco4)cc3F)n2)c(F)c1 [Example 622] | 8.57 | 0.38 |  | 
COC[C@@H](c1ccccc1)n1c(Cc2cc(F)c(-c3cccc(OCc4ccc(C#N)cc4F)n3)cc2F)nc2ccc(C(=O)O)cc21 [Example 716] | 5.56 | 0.13 |  | 
COC1(Cn2c(Cc3cc(F)c(-c4cccc(OCc5ccc(C#N)cc5F)n4)cc3F)nc3ccc(C(=O)O)cc32)COC1 [Example 636] | 8.90 | 0.39 |  | 
N#Cc1ccc(COc2cccc(-c3cc(F)c(Cc4nc5ccc(C(=O)O)cc5n4C4COCC4(F)F)cc3F)n2)c(F)c1 (stereo not drawn) [Example 612] | 9.66 | 0.23 |  | 
N#Cc1ccc(COc2cccc(-c3cc(F)c(Cc4nc5ccc(C(=O)O)cc5n4Cc4ccns4)cc3F)n2)c(F)c1 [Example 579, 2-(4-(6-((4-cyano-2-fluorobenzyl)oxy)pyridin-2-yl)-2,5-difluorobenzyl)-1-(isothiazol-5-ylmethyl)-1H-benzo[d]imidazole-6-carboxylic acid] | 9.46 | 0.96 |  | 
N#Cc1ccc(COc2cccc(-c3cc(F)c(Cc4nc5ccc(C(=O)O)cc5n4Cc4ccsn4)cc3F)n2)c(F)c1 [Example 580, 2-(4-(6-((4-cyano-2-fluorobenzyl)oxy)pyridin-2-yl)-2,5-difluorobenzyl)-1-(isothiazol-3-ylmethyl)-1H-benzo[d]imidazole-6-carboxylic acid] | 8.71 | 0.35 |  | 
COCCn1c(Cc2cc(F)c(-c3cccc(OCc4cccc(-c5ccn(C)n5)c4)n3)cc2F)nc2ccc(C(=O)O)cc21 [Example 914] | 7.29 | 0.36 |  | 
COCCn1c(Cc2cnc(-c3cccc(OCc4ccc(C#N)cc4F)n3)cn2)nc2ccc(C(=O)O)cc21 [Example 102, 2-((5-(6-((4-cyano-2-fluorobenzyl)oxy)pyridin-2-yl)pyrazin-2-yl)methyl)-1-(2-methoxyethyl)-1H-benzo[d]imidazole-6-carboxylic acid] | 7.25 | 0.31 |  | 
CC(C)(C)OC(=O)N(CCn1c(Cc2cc(F)c(-c3cccc(OCc4ccc(C#N)cc4F)n3)cc2F)nc2ccc(C(=O)O)cc21)C1CC1 [Example 907, 1-(2-((tert-butoxycarbonyl)(cyclopropyl)amino)ethyl)-2-(4-(6-((4-cyano-2-fluorobenzyl)oxy)pyridin-2-yl)-2,5-difluorobenzyl)-1H-benzo[d]imidazole-6-carboxylic acid] |  | 0.51 | 5.00 | 
COCCn1c(Cc2ccc(-c3cccc(OCc4cccc(C(C)(C)C)c4)n3)cc2F)nc2ccc(C(=O)O)cc21 [Example 155, 2-(4-(6-((3-(tert-butyl)benzyl)oxy)pyridin-2-yl)-2-fluorobenzyl)-1-(2-methoxyethyl)-1H-benzo[d]imidazole-6-carboxylic acid] | 7.14 | 0.33 |  | 
COCCn1c(Cc2ccc(-c3cccc(OCc4ccc(C(F)(F)F)nc4OC)n3)cc2F)nc2ccc(C(=O)O)cc21 [Example 458, 2-[[2-fluoro-4-[6-[[2-methoxy-6-(trifluoromethyl)-3-pyridyl]methoxy]-2-pyridyl]phenyl]methyl]-3-(2-methoxyethyl)benzimidazole-5-carboxylic acid] | 8.56 | <0.11 |  | 
C[C@@H](O)Cn1c(Cc2cc(F)c(-c3cccc(OCc4ccc(C#N)cc4F)n3)cc2F)nc2ccc(C(=O)O)cc21 [Example 724] |  | 0.40 |  | 15.1
C[C@H](C1CC1)n1c(Cc2ccc(-c3cccc(OCc4ccc(C#N)cc4F)n3)cc2F)nc2ccc(C(=O)O)cc21 [Example 222, (R)-2-(4-(6-((4-cyano-2-fluorobenzyl)oxy)pyridin-2-yl)-2-fluorobenzyl)-1-(1-cyclopropylethyl)-1H-benzo[d]imidazole-6-carboxylic acid] | 8.17 | 0.3 |  | 
N#Cc1ccc(COc2cccc(-c3ccc(Cc4nc5ccc(C(=O)O)cc5n4CC4(C#N)CC4)c(F)c3)n2)c(F)c1 [Example 13, 2-(4-(6-((4-cyano-2-fluorobenzyl)oxy)pyridin-2-yl)-2-fluorobenzyl)-1-((1-cyanocyclopropyl)methyl)-1H-benzo[d]imidazole-6-carboxylic acid] | 8.57 | 0.25 |  | 
N#Cc1ccc(COc2ccc(F)c(-c3ccc(Cc4nc5ccc(C(=O)O)cc5n4C[C@@H]4CCO4)c(F)c3)n2)c(F)c1 [Example 797] | 9.57 | 0.43 |  | 
COCCn1c(Cc2ccc(-c3cccc(OCc4ccc(C#N)cc4F)n3)cc2Br)nc2ccc(C(=O)O)cc21 [Example 239, 2-(2-bromo-4-(6-((4-cyano-2-fluorobenzyl)oxy)pyridin-2-yl)benzyl)-1-(2-methoxyethyl)-1H-benzo[d]imidazole-6-carboxylic] | 8.13 | <0.11 |  | 
N#Cc1ccc(COc2cccc(-c3ccc(Cc4nc5cc(F)c(C(=O)O)cc5n4C[C@@H]4CCO4)c(F)c3)n2)c(F)c1 [Example 206] | 9.07 | 0.21 |  | 
COCCn1c(Cc2cc(F)c(-c3cccc(OCc4ccc(Cl)nc4C)n3)cc2F)nc2ccc(C(=O)O)cc21 [Example 821] | 7.83 | 0.16 |  | 
COCCC1(Cn2c(Cc3ccc(-c4cccc(OCc5ccc(C#N)cc5F)n4)cc3F)nc3ccc(C(=O)O)cc32)CC1 [Example 291, 2-(4-(6-((4-cyano-2-fluorobenzyl)oxy)pyridin-2-yl)-2-fluorobenzyl)-1-((1-(2-methoxyethyl)cyclopropyl)methyl)-1H-benzo[d]imidazole-6-carboxylic acid] | 8.97 | <0.11 |  | 
